According to US20260176254A1, “INHIBITORS OF PROSTATE SPECIFIC MEMBRANE ANTIGEN AND USE THEREOF” (SHANGHAI SINOTAU BIOTECH. CO., LTD, priority 2023, published 2026):

Legend:
[1] = biological target: T1, recombinant human PSMA (rhPSMA) (Homo sapiens, UniProt Q04609); test: Naaladase assay (fluorescence-based Naaladase activity inhibition); type: biochemical; settings: rhPSMA 0.4 μg/mL, substrate N-Acetyl-Asp-Glu 40 μM, 37° C. one hour
T1 construct: purchased Sino Biological
Procedure: Naaladase activity inhibition was determined using a fluorescence-based assay. Briefly, the solution containing the substrate N-Acetyl-Asp-Glu (Sigma-Aldrich) at 40 μM and the compound at concentrations from 0.15 nM to 1000 nM was mixed at equal volume with recombinant human PSMA (rhPSMA, Sino Biological) at 0.4 μg/mL, in assay buffer (50 mM HEPES, 100 mM NaCl, pH 7.5). The enzymatic reaction was proceeded by incubation at 37° C. for one hour and then stopped by heating at 95° C. for 5 minutes. A solution of 15 mM ortho-phthaldialdehyde (Sigma-Aldrich) was added to all vials and incubated for 10 min at ambient temperature. The reaction solutions were loaded onto a 96-well flat clear bottom black microplates (Corning) and read at excitation and emission wavelengths of 330 and 450 nm, respectively, using a microplate reader (Tecan). The data were analyzed by a one-site total binding regression algorithm of GraphPad Prism (GraphPad Software).

LNCaP cells = test: Cell uptake assay of 177Lu-labeled compound; type: cell-based; settings: for Membrane (%): cell membrane fraction; for Intracellular (%): intracellular fraction
Procedure: LNCaP (ATCC) cells were cultured in RPMI 1640 medium (Gibco) containing 10% fetal bovine serum (FBS) (Gibco), in 5% carbon dioxide (CO2), at 37.0° C. in a humidified incubator. 2×10^5 LNCaP cells/well were seeded in a 24-well plate the day before experiment. 7.4 KBq (200 nCi) of ^177Lu-labeled compound was added into each well, and then incubated in 37° C., 5% CO2 incubator for varying durations. At each time point, the supernatant, cell membrane and intracellular fractions were collected. The cell membrane fraction was recovered by incubating cells with buffer containing 50 mM glycine and 100 mM NaCl, pH 2.7 for 10 minutes at 37° C., while the intracellular fraction was recovered from cells treated with 1M NaOH. Activity of ^177Lu-labelled compound in every component was detected by gamma counter.

T1 sequence (Q04609 whole entry): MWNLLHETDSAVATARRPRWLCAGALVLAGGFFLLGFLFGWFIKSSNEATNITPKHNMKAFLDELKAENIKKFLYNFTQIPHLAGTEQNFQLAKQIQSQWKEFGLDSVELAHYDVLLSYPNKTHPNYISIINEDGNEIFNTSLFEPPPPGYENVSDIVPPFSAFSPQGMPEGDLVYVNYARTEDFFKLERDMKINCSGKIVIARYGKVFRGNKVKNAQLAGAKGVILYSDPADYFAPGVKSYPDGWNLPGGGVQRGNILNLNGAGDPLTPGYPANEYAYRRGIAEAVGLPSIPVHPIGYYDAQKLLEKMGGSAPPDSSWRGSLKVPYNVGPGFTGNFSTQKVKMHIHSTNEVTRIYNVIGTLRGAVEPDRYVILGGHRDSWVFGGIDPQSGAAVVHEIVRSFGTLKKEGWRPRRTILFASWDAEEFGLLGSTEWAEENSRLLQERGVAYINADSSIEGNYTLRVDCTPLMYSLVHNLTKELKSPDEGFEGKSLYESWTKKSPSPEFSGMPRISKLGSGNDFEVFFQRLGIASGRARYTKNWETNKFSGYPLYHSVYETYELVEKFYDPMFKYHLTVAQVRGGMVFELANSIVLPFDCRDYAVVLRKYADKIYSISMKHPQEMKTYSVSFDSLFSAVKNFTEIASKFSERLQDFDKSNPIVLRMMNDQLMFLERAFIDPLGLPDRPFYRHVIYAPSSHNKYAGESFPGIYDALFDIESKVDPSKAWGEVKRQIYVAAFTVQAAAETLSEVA

## O=C(O)CC[C@H](NC(=O)N[C@@H](CCCCNC(=O)[C@H](Cc1ccc2ccccc2c1)Nc1c(NC23CCC(CNC(=O)CN4CCN(CC(=O)O)CCN(CC(=O)O)CCN(CC(=O)O)CC4)(CC2)CC3)c(=O)c1=O)C(=O)O)C(=O)O [E1, (((S)-1-carboxy-5-((S)-2-((3,4-dioxo-2-((4-((2-(4,7,10-tris(carboxymethyl)-1,4,7,10-tetraazacyclododecan-1-yl)acetamido)methyl)bicyclo[2.2.2]octan-1-yl)amino)cyclobut-1-en-1-yl)amino)-3-(naphthalen-2-yl)propanamido)pentyl)carbamoyl)-L-glutamic acid]
[1]
  IC50: 3.3 nM
LNCaP cells; 1 hr
  Membrane (%): 3.4%
  Intracellular (%): 3.0%
LNCaP cells; 4 hr
  Membrane (%): 5.6%
  Intracellular (%): 9.9%
LNCaP cells; 24 hr
  Membrane (%): 7.1%
  Intracellular (%): 24.8%

## O=C(O)CCC[C@H](NC(=O)N[C@@H](CCCCNC(=O)[C@H](Cc1c2ccccc2cc2ccccc12)Nc1c(NC23CCC(CNC(=O)CN4CCN(CC(=O)O)CCN(CC(=O)O)CCN(CC(=O)O)CC4)(CC2)CC3)c(=O)c1=O)C(=O)O)C(=O)O [E2, (S)-2-(3-((S)-5-((S)-3-(anthracen-9-yl)-2-((3,4-dioxo-2-((4-((2-(4,7,10-tris(carboxymethyl)-1,4,7,10-tetraazacyclododecan-1-yl)acetamido)methyl)bicyclo[2.2.2]octan-1-yl)amino)cyclobut-1-en-1-yl)amino)propanamido)-1-carboxypentyl)ureido)hexanedioic acid]
[1]
  IC50: 4 nM

## O=C(O)CN1CCN(CC(=O)O)CCN(CC(=O)NCC23CCC(Nc4c(N[C@@H](Cc5c6ccccc6cc6ccccc56)C(=O)NCCCC[C@H](NC(=O)N[C@@H](CNC(=O)C(=O)O)C(=O)O)C(=O)O)c(=O)c4=O)(CC2)CC3)CCN(CC(=O)O)CC1 [E3, (4S,8S,15S)-16-(anthracen-9-yl)-15-((3,4-dioxo-2-((4-((2-(4,7,10-tris(carboxymethyl)-1,4,7,10-tetraazacyclododecan-1-yl)acetamido)methyl)bicyclo[2.2.2]octan-1-yl)amino)cyclobut-1-en-1-yl)amino)-1,6,14-trioxo-2,5,7,13-tetraazahexadecane-1,4,8-tricarboxylic acid]
[1]
  IC50: 1.2 nM
LNCaP cells; 1 hr
  Membrane (%): 4.0%
  Intracellular (%): 14.7%
LNCaP cells; 4 hr
  Membrane (%): 6.8%
  Intracellular (%): 44.2%
LNCaP cells; 24 hr
  Membrane (%): 8.8%
  Intracellular (%): 73.3%

## O=C(O)CCC[C@H](NC(=O)N[C@@H](CCCCNC(=O)[C@H](Cc1c2ccccc2cc2ccccc12)Nc1c(NC23CCC(NC(=O)CN4CCN(CC(=O)O)CCN(CC(=O)O)CCN(CC(=O)O)CC4)(CC2)CC3)c(=O)c1=O)C(=O)O)C(=O)O [E4, (S)-2-(3-((S)-5-((S)-3-(anthracen-9-yl)-2-((3,4-dioxo-2-((4-(2-(4,7,10-tris(carboxymethyl)-1,4,7,10-tetraazacyclododecan-1-yl)acetamido)bicyclo[2.2.2]octan-1-yl)amino)cyclobut-1-en-1-yl)amino)propanamido)-1-carboxypentyl)ureido)hexanedioic acid]
[1]
  IC50: 1.4 nM
LNCaP cells; 1 hr
  Membrane (%): 6.4%
  Intracellular (%): 7.2%
LNCaP cells; 4 hr
  Membrane (%): 12.8%
  Intracellular (%): 23.0%
LNCaP cells; 24 hr
  Membrane (%): 13.0%
  Intracellular (%): 57.4%

## O=C(O)CC[C@H](NC(=O)N[C@@H](CCCCNC(=O)[C@H](Cc1ccc2ccccc2c1)Nc1c(Nc2ccc3c(c2)CCN(C(=O)CN2CCN(CC(=O)O)CCN(CC(=O)O)CCN(CC(=O)O)CC2)C3)c(=O)c1=O)C(=O)O)C(=O)O [E5]
[1]
  IC50: 3 nM

## O=C(O)CCC[C@H](NC(=O)N[C@@H](CCCCNC(=O)[C@H](Cc1c2ccccc2cc2ccccc12)Nc1c(N[C@H]2CC[C@H](c3nnc(CN4CCN(CC(=O)O)CCN(CC(=O)O)CCN(CC(=O)O)CC4)o3)CC2)c(=O)c1=O)C(=O)O)C(=O)O [E11]
[1]
  IC50: 10 nM

## NC(=O)CN1CCN(CC(=O)O)CCN(CC(=O)NC23CCC(Nc4c(N[C@@H](Cc5c6ccccc6cc6ccccc56)C(=O)NCCCC[C@H](NC(=O)N[C@@H](CNC(=O)C(=O)O)C(=O)O)C(=O)O)c(=O)c4=O)(CC2)CC3)CCN(CC(=O)O)CC1 [E16]
[1]
  IC50: 3.5 nM

## NC(=O)CN1CCN(CC(=O)O)CCN(Cc2nnc(C34CCC(Nc5c(N[C@@H](Cc6c7ccccc7cc7ccccc67)C(=O)NCCCC[C@H](NC(=O)N[C@@H](CCCC(=O)O)C(=O)O)C(=O)O)c(=O)c5=O)(CC3)CC4)o2)CCN(CC(=O)O)CC1 [E20]
[1]
  IC50: 1.8 nM

## O=C(O)CN1CCN(CC(=O)O)CCN(CC(=O)NC23CCC(Nc4c(N[C@@H](Cc5ccc6ccccc6c5)C(=O)NCCCC[C@H](NC(=O)N[C@@H](CNC(=O)C(=O)O)C(=O)O)C(=O)O)c(=O)c4=O)(CC2)CC3)CCN(CC(=O)O)CC1 [E21, (4S,8S,15S)-15-((3,4-dioxo-2-((4-(2-(4,7,10-tris(carboxymethyl)-1,4,7,10-tetraazacyclododecan-1-yl)acetamido)bicyclo[2.2.2]octan-1-yl)amino)cyclobut-1-en-1-yl)amino)-16-(naphthalen-2-yl)-1,6,14-trioxo-2,5,7,13-tetraazahexadecane-1,4,8-tricarboxylic acid]
[1]
  IC50: 1.5 nM

## O=C(O)CN1CCN(CC(=O)O)CCN(CC(=O)NC23CCC(Nc4cc(N[C@@H](Cc5c6ccccc6cc6ccccc56)C(=O)NCCCC[C@H](NC(=O)N[C@@H](CNC(=O)C(=O)O)C(=O)O)C(=O)O)ncn4)(CC2)CC3)CCN(CC(=O)O)CC1 [E22, (4S,8S,15S)-16-(anthracen-9-yl)-1,6,14-trioxo-15-((6-((4-(2-(4,7,10-tris(carboxymethyl)-1,4,7,10-tetraazacyclododecan-1-yl)acetamido)bicyclo[2.2.2]octan-1-yl)amino)pyrimidin-4-yl)amino)-2,5,7,13-tetraazahexadecane-1,4,8-tricarboxylic acid]
[1]
  IC50: 4.9 nM

## O=C(O)CC[C@H](NC(=O)N[C@@H](CCCCNC(=O)[C@H](Cc1ccc2ccccc2c1)Nc1cc(NC23CCC(NC(=O)CN4CCN(CC(=O)O)CCN(CC(=O)O)CCN(CC(=O)O)CC4)(CC2)CC3)ncn1)C(=O)O)C(=O)O [E24]
[1]
  IC50: 8.6 nM

## COc1nc(N[C@@H](Cc2ccc3ccccc3c2)C(=O)NCCCC[C@H](NC(=O)N[C@@H](CCC(=O)O)C(=O)O)C(=O)O)cc(NC23CCC(NC(=O)CN4CCN(CC(=O)O)CCN(CC(=O)O)CCN(CC(=O)O)CC4)(CC2)CC3)n1 [E25]
[1]
  IC50: 23.1 nM

## O=C(O)CN1CCN(CC(=O)O)CCN(CC(=O)NC23CCC(Nc4nnc(N[C@@H](Cc5c6ccccc6cc6ccccc56)C(=O)NCCCC[C@H](NC(=O)N[C@@H](CNC(=O)C(=O)O)C(=O)O)C(=O)O)s4)(CC2)CC3)CCN(CC(=O)O)CC1 [E26]
[1]
  IC50: 9.5 nM

## O=C(O)CC[C@H](NC(=O)N[C@@H](CCCCNC(=O)[C@H](Cc1ccc2ccccc2c1)Nc1nc(O)nc(NC23CCC(NC(=O)CN4CCN(CC(=O)O)CCN(CC(=O)O)CCN(CC(=O)O)CC4)(CC2)CC3)n1)C(=O)O)C(=O)O [E27]
[1]
  IC50: 26.6 nM

## O=C(O)CC[C@H](NC(=O)N[C@@H](CCCCNC(=O)[C@H](Cc1ccc2ccccc2c1)Nc1c(NC23CCC(c4nnc(CN5CCN(CC(=O)O)CCN(CC(=O)O)CCN(CC(=O)O)CC5)o4)(CC2)CC3)c(=O)c1=O)C(=O)O)C(=O)O [E28]
[1]
  IC50: 2.1 nM
